Assay results: patent publication US4216324A, “1-Difluoromethyl-6,7-methylenedioxy-1,4-dihyd ro-4-oxo-3-quinolinecarboxylic acid” (E. I. Du Pont de Nemours and Company, priority 1978, dated 1980)
Where two headings read alike, the source gives them in different places.

Experiments:
[1] = General pharmacology screen in rats; settings: rat, in vivo
Bac. subtilis = test: In vitro minimum inhibitory concentration (MIC), tube dilution test; format: cell-based; settings: Bacillus subtilis; Bac. subtilis (07A); brain-heart infusion broth, 20hour incubation at 37° C.; read-out: Minimal Inhibitory Test Conens. (MIC)
Procedure: (§1) A. In vitro: mimimum inhibitory concentration (MIC)
(§2) The compound was tested in a standard bacteriological tube dilution test for MIC for a variety of bacteria. Stock cultures of the bacteria listed in Table 1 were grown in bacterial culture media at 37° C. overnight and diluted in culture tubes to a previously determined concentration proper for the test. The compound was added to result in final concentrations of 10, 2, 0.4 and 0.08 μg/ml. These were incubated for 18 hours at 37° C. and then observed to determine if growth of bacteria had occurred. The lowest concentration of the compound that inhibited bacterial growth in the MIC.
(§3) *brain-heart infusion broth, 20hour incubation at 37° C.

E. coli = test: as above; format: cell-based; settings: Escherichia coli, 20 h, brain-heart infusion broth, 20hour incubation at 37° C., read-out: Minimal Inhibitory Test Conens. (MIC)
Procedure: as §1, §2, §3

Proteus sp. = test: as above; format: cell-based; settings: brain-heart infusion broth, 20hour incubation at 37° C., read-out: Minimal Inhibitory Test Conens. (MIC)
Procedure: as §1, §2, §3

Staph. aureus = test: as above; format: cell-based; settings: Staphylococcus aureus; Staph. aureus (08F); brain-heart infusion broth, 20hour incubation at 37° C.; read-out: Minimal Inhibitory Test Conens. (MIC)
Procedure: as §1, §2, §3

Strep. pyogenes = test: as above; format: cell-based; settings: Streptococcus pyogenes; Strep. pyogenes (10V); brain-heart infusion broth, 20hour incubation at 37° C.; read-out: Minimal Inhibitory Test Conens. (MIC)
Procedure: as §1, §2, §3

Sal. typhimurium = test: as above; format: cell-based; settings: Salmonella enterica, 20 h, brain-heart infusion broth, 20hour incubation at 37° C., read-out: Minimal Inhibitory Test Conens. (MIC)
Procedure: as §1, §2, §3

Sal. typhi = test: as above; format: cell-based; settings: Salmonella enterica, TYPHI, 20 h, brain-heart infusion broth, 20hour incubation at 37° C.
Procedure: as §1, §2, §3

Aero. cloacae = test: as above; format: cell-based; settings: Enterobacter cloacae; Aero. cloacae (39A); brain-heart infusion broth, 20hour incubation at 37° C.; read-out: Minimal Inhibitory Test Conens. (MIC)
Procedure: as §1, §2, §3

Kleb. aerobacter = test: as above; format: cell-based; settings: Kleb. aerobacter (20F); brain-heart infusion broth, 20hour incubation at 37° C.; read-out: Minimal Inhibitory Test Conens. (MIC)
Procedure: as §1, §2, §3

Shiq. dysenteriae = test: as above; format: cell-based; settings: 20 h, read-out: Minimal Inhibitory Test Conens. (MIC)
Procedure: as §1, §2, §3

Proteus vulgaris = test: as above; format: cell-based; settings: Proteus vulgaris (14P); brain-heart infusion broth, 20hour incubation at 37° C.; read-out: Minimal Inhibitory Test Conens. (MIC)
Procedure: as §1, §2, §3

Sal. choleraesuis = test: as above; format: cell-based; settings: Salmonella enterica, 20 h, read-out: Minimal Inhibitory Test Conens. (MIC)
Procedure: as §1, §2, §3

Sal. gallinarum = test: as above; format: cell-based; settings: Salmonella enterica, 20 h, brain-heart infusion broth, 20hour incubation at 37° C., read-out: Minimal Inhibitory Test Conens. (MIC)
Procedure: as §1, §2, §3

Ser. marcescens = test: as above; format: cell-based; settings: Serratia marcescens; Ser. marcescens (22); brain-heart infusion broth, 20hour incubation at 37° C.; read-out: Minimal Inhibitory Test Conens. (MIC)
Procedure: as §1, §2, §3

in vivo = settings: mouse, in vivo, po; for TD50: doses given in mg./kg
Procedure: 17- to 24-hour fasted female white mice, 16-20 g. each, or rats, 70-90 g. each were dosed orally with test drug (or standard) at 0, 4, 12, 36, 108 or 324 mg./kg.
Ataxia--The mouse or rat was placed upright on the bench top facing away from the observer. Motor incoordination manifested by abnormal gait or lack of precision during purposive movements constituted ataxia.
Vertical Bar--The mouse or rat was swung by the tail with head pointing down to a 0.5" diameter (1" diameter for rats), 30.5 cm long vertical rod covered with adhesive tape. Inability to grip the rod with the front paws, sliding or failure to move after being prodded constituted vertical bar loss.
Body Temperature--The rectal temperatures of the mice and rats were taken using a KC-1 thermocouple probe.
Excitement and Irritability--Increased spontaneous motor activity, running and jumping prior to handling were recorded as excitement. Upon handling, jumping, jerking, biting and squeaking were recorded as irritability.
Anorexia--At the end of the 0.5 hour testing period, each mouse was transferred to an individual, clear, Lucite® compartment (13.3 cm×12.7 cm×12.7 cm) with a 0.64 cm×0.64 cm wire mesh floor. Inside each compartment there was a section of a black Lucite® bar [13 cm×1.2 cm×1.2 cm) with ten spot depressions (0.8 cm diameter) each containing 0.05 ml. of 50% sweetened condensed milk. 30 Minutes later the number of milk spots consumed was counted. 5 Mice per drug dose can drink a maximum of 50 spots (2.5 ml. of milk). 15 or fewer spots consumed by 5 mice constituted anorexia.

[2] = po, doses given in mg./kg, read-out: ED50 Ataxia
[3] = po, doses given in mg./kg, read-out: ED50 Excitation
[4] = po, doses given in mg./kg, read-out: ED50 Irritability
[5] = po, rectal temperature, doses given in mg./kg, read-out: ED50 Hypertherm.
[6] = po, rectal temperature, doses given in mg./kg, read-out: ED50 Hypotherm.
[7] = po, vertical bar loss, doses given in mg./kg, read-out: ED50 Vert. Bar
[8] = read-out: Minimal Inhibitory Test Conens. (MIC), Sal. typhi (02A)
[9] = read-out: Minimal Inhibitory Test Conens. (MIC), Sal. typhi (02B)
[10] = ED50 Anoroxia, 15 or fewer milk spots consumed by 5 mice
[11] = ED50 Hypertherm., rectal temperature
[12] = ED50 Hypotherm., rectal temperature
[13] = ED50 Vert. Bar, vertical bar loss

O=C(O)c1cn(C(F)F)c2cc3c(cc2c1=O)OCO3 [DFMQ, 1-difluoromethyl-6,7-methylenedioxy-1,4-dihydro-4-oxo-3-quinolinecarboxylic acid]
< 0.08 µg/mL: MIC (Bac. subtilis) | MIC (E. coli; E. coli (06-2M)) | MIC (Proteus sp.) | MIC (Strep. pyogenes) | MIC (Sal. typhimurium; Sal. typhimurium (03K)) | MIC (Aero. cloacae) | MIC (Sal. choleraesuis)
0.4 µg/mL: MIC (E. coli; E. coli (06-2F)) | MIC (E. coli; E. coli (06J)) | MIC (E. coli; E. coli (06K)) | MIC (E. coli; E. coli (06L)) | MIC (E. coli; E. coli (06M)) | MIC (E. coli; E. coli (06S)) | MIC (E. coli; E. coli (06V)) | MIC (Staph. aureus) | MIC (Sal. typhimurium; Sal. typhimurium (03A)) | MIC (Sal. typhimurium; Sal. typhimurium (03C)) | MIC (Sal. typhi; [9]) | MIC (Shiq. dysenteriae) | MIC (Sal. gallinarum; Sal. gallinarum (04D)) | MIC (Ser. marcescens)
10 µg/mL: MIC (E. coli; E. coli (06-2L)) | MIC (E. coli; E. coli (06I))
> 324 mg/kg: LD50 at 24 h ([1]; po) | TD50 [1, 2] | TD50 [1, 3] | TD50 [1, 4] | TD50 [1, 5] | TD50 [1, 6] | TD50 [1, 7]
> 450 mg/kg: LD50 at 24 h (in vivo) | TD50 (in vivo; [10]) | TD50 (in vivo; ED50 Ataxia) | TD50 (in vivo; ED50 Excitation) | TD50 (in vivo; [11]) | TD50 (in vivo; [12]) | TD50 (in vivo; ED50 Irritability) | TD50 (in vivo; [13])
2 µg/mL: MIC (E. coli; E. coli (06-2B)) | MIC (E. coli; E. coli (06C)) | MIC (E. coli; E. coli (06X)) | MIC (E. coli; E.coli (06-2D)) | MIC (Sal. typhi; [8]) | MIC (Kleb. aerobacter) | MIC (Proteus vulgaris) | MIC (Sal. gallinarum; Sal. gallinarum (04C))

CCn1cc(C(=O)O)c(=O)c2ccc(C)nc21 [Nalidixic Acid, nalidixic acid]
10 µg/mL: MIC (E. coli; E. coli (06K)) | MIC (E. coli; E. coli (06L)) | MIC (E. coli; E. coli (06M)) | MIC (E. coli; E. coli (06S)) | MIC (E. coli; E. coli (06X)) | MIC (E. coli; E.coli (06-2D)) | MIC (Strep. pyogenes) | MIC (Sal. typhi; [8]) | MIC (Sal. gallinarum; Sal. gallinarum (04D))
150 mg/kg: TD50 (in vivo; ED50 Ataxia)
180 mg/kg: TD50 (in vivo; [10])
2 µg/mL: MIC (E. coli; E. coli (06-2F)) | MIC (E. coli; E. coli (06-2M)) | MIC (E. coli; E. coli (06J)) | MIC (E. coli; E. coli (06V)) | MIC (Proteus sp.) | MIC (Staph. aureus) | MIC (Sal. typhimurium; Sal. typhimurium (03A)) | MIC (Sal. typhimurium; Sal. typhimurium (03C)) | MIC (Sal. typhimurium; Sal. typhimurium (03K)) | MIC (Sal. typhi; [9]) | MIC (Aero. cloacae) | MIC (Sal. choleraesuis) | MIC (Ser. marcescens)
> 324 mg/kg: LD50 at 24 h ([1]; oral, doses given in mg./kg, read-out: ED50 24-Hour Mort.) | TD50 [1, 3] | TD50 [1, 4] | TD50 [1, 5] | TD50 [1, 6]
360 mg/kg: TD50 [1, 7]
> 450 mg/kg: LD50 at 24 h (in vivo) | TD50 (in vivo; ED50 Excitation) | TD50 (in vivo; [11]) | TD50 (in vivo; ED50 Irritability)
0.4 µg/mL: MIC (Bac. subtilis)
187 mg/kg: TD50 [1, 2] | TD50 (in vivo; [12]) | TD50 (in vivo; [13])
> 10 µg/mL: MIC (E. coli; E. coli (06-2B)) | MIC (E. coli; E. coli (06-2L)) | MIC (E. coli; E. coli (06C)) | MIC (E. coli; E. coli (06I)) | MIC (Kleb. aerobacter) | MIC (Shiq. dysenteriae) | MIC (Proteus vulgaris) | MIC (Sal. gallinarum; Sal. gallinarum (04C))
